Measurements published in article PMC4839570, “Novel Anthra[1,2-c][1,2,5]Thiadiazole-6,11-Diones as Promising Anticancer Lead Compounds: Biological Evaluation, Characterization & Molecular Targets Determination” (PLoS ONE, 2016).
Where two headings read alike, the source gives them in different places.

Tests used:
DMS273 = test: JFCR-39 cytotoxicity screen; type: cell-based
ST-4 = test: JFCR-39 cytotoxicity screen; type: cell-based
786-0 = test: NCI-60 cytotoxicity screen; type: cell-based
NCI-H460 = test: JFCR-39 cytotoxicity screen; type: cell-based
HCT-15 = test: NCI-60 cytotoxicity screen; type: cell-based
[1] = test system: JFCR 39 human cancer cell lines; test: JFCR-39 screen, means, ranges and selectivity over panels; type: cell-based; conditions: for GI50: Homo sapiens
Procedure: Both NSC745885 and NSC757963 satisfied the pre-determined threshold inhibition criteria of the NCI-60 One-Dose Screening, so they were tested against the panels of 60 cancer cell lines of NCI (NCI-60) and 39 cancer cell lines of JFCR (JFCR-39), each cell line was tested at five small doses of our compounds. Results are expressed as the 50% growth inhibition concentration (GI50), the 50% lethal concentration (LC50) and the total growth inhibition (TGI), compared to the values of untreated control cells.
To characterize the selectivity of NSC745885 and NSC757963 further among the different types of cancer, we determined their selectivity ratios towards each cell line subpanel used in the cytotoxicity experiments. […] The promising activity of this compound is evident from the small mean GI50 values. […] The strongest activity was towards the leukemia subpanel and the least one was towards the colon cancer subpanel. […] The strongest activity was towards the melanoma subpanel and the least one was towards the colon cancer subpanel.
All cell lines were published before.

SK-OV-3 [2] = test: JFCR-39 cytotoxicity screen; type: cell-based
SF-268 = test: NCI-60 cytotoxicity screen; type: cell-based
OVCAR-8 = test: NCI-60 cytotoxicity screen; type: cell-based
OVCAR-3 [3] = conditions: five-dose
EKVX = test: NCI-60 cytotoxicity screen; type: cell-based
PC-3 = test: NCI-60 cytotoxicity screen; type: cell-based
OVCAR-3 [4] = conditions: JFCR
MKN1 = test: JFCR-39 cytotoxicity screen; type: cell-based
HOP-92 = test: NCI-60 cytotoxicity screen; type: cell-based
SW-620 = test: NCI-60 cytotoxicity screen; type: cell-based
NCI/ADR-RES = test: NCI-60 cytotoxicity screen; type: cell-based
LOX-IMVI = test: JFCR-39 cytotoxicity screen; type: cell-based
SK-OV-3 [5] = test: NCI-60 cytotoxicity screen; type: cell-based
NCI-H522 = test: NCI-60 cytotoxicity screen; type: cell-based
SF-295 = test: JFCR-39 cytotoxicity screen; type: cell-based
HOP-62 = test: NCI-60 cytotoxicity screen; type: cell-based
KM12 = test: NCI-60 cytotoxicity screen; type: cell-based
HT29 = test: NCI-60 cytotoxicity screen; type: cell-based
A498 = test: NCI-60 cytotoxicity screen; type: cell-based
[6] = Homo sapiens, read-out: LC50 (the source's name)
[7] = Homo sapiens, Fig 7, read-out: mean log10 of the GI50 values (converted)
[8] = Homo sapiens, five-dose, read-out: GI50
[9] = Homo sapiens, five-dose, read-out: LC50 (the source's name)

Compound: O=C1c2ccccc2C(=O)c2c1cc(Cl)c1nsnc21 [NSC757963]
- TGI (DMS273): 4.1 µM
- GI50 (DMS273; Homo sapiens, DMS-273): 2.1 µM
- CC50 (DMS273; Homo sapiens, DMS-273, read-out: LC50 (the source's name)): 8.1 µM
- TGI (ST-4): 3.9 µM
- GI50 (ST-4; Homo sapiens): 2 µM
- CC50 (ST-4; [6]): 7.4 µM
- TGI (786-0; 786–0, five-dose): 31.8 µM
- GI50 (786-0; Homo sapiens, 786-0, Fig 7, read-out: mean log10 of the GI50 values (converted)): 6.61 µM
- GI50 (786-0; Homo sapiens, 786–0, five-dose, read-out: GI50): 17.2 µM
- CC50 (786-0; Homo sapiens, 786–0, five-dose, read-out: LC50 (the source's name)): 58.8 µM
- TGI (NCI-H460): 26.0 µM
- GI50 (NCI-H460; Homo sapiens): 10 µM
- CC50 (NCI-H460; [6]): 64 µM
- GI50 (HCT-15; [7]): 6.61 µM
- GI50 (HCT-15; [8]): 10.2 µM
- CC50 (HCT-15; [9]): 55.9 µM
- TGI (HCT-15; five-dose): 23.8 µM
- selectivity ratios of the JFCR subpanels (for NSC745885 except melanoma) [1]: less than 3
- GI50 ([1]; JFCR Breast Cancer, read-out: Mean GI50 of subpanel): 1.72 µM
- GI50 ([1]; JFCR CNS Cancer, read-out: Mean GI50 of subpanel): 2 µM
- GI50 ([1]; JFCR Colon Cancer, read-out: Mean GI50 of subpanel): 5.94 µM
- GI50 ([1]; JFCR Lung Cancer, read-out: Mean GI50 of subpanel): 5.86 µM
- GI50 ([1]; JFCR Melanoma, read-out: Mean GI50 of subpanel): 1.9 µM
- GI50 ([1]; JFCR Ovarian Cancer, read-out: Mean GI50 of subpanel): 2.08 µM
- GI50 ([1]; JFCR Prostate Cancer, read-out: Mean GI50 of subpanel): 2.05 µM
- GI50 ([1]; JFCR Renal Cancer, read-out: Mean GI50 of subpanel): 1.75 µM
- GI50 ([1]; JFCR Stomach Cancer, read-out: Mean GI50 of subpanel): 1.97 µM
- GI50 ([1]; all JFCR subpanels, read-out: mean GI50 values of the JFCR subpanels, range): 1.72 to 5.9 µM
- GI50 ([1]; equivalent to MG-MID, read-out: Mean GI50 of all JFCR-39 cell line panels): 3.15 µM
- GI50 ([1]; five-dose, read-out: JFCR-39 GI50 values, range over cell lines): 1 to 21 µM
- Selectivity ratio ([1]; JFCR Breast Cancer): 1.83
- Selectivity ratio ([1]; JFCR CNS Cancer): 1.58
- Selectivity ratio ([1]; JFCR Colon Cancer): 0.53
- Selectivity ratio ([1]; JFCR Lung Cancer): 0.54
- Selectivity ratio ([1]; JFCR Melanoma): 1.66
- Selectivity ratio ([1]; JFCR Ovarian Cancer): 1.52
- Selectivity ratio ([1]; JFCR Prostate Cancer): 1.54
- Selectivity ratio ([1]; JFCR Renal Cancer): 1.8
- Selectivity ratio ([1]; JFCR Stomach Cancer): 1.6
- TGI (SK-OV-3 [2]): 14.0 µM
- GI50 (SK-OV-3 [2]; Homo sapiens): 3.2 µM
- CC50 (SK-OV-3 [2]; [6]): 38 µM
- GI50 (SF-268; [7]): 1.95 µM
- GI50 (SF-268; [8]): 2.07 µM
- CC50 (SF-268; [9]): 13.9 µM
- TGI (SF-268; five-dose): 4.83 µM
- GI50 (OVCAR-8; [7]): 1.32 µM
- GI50 (OVCAR-8; [8]): 2.39 µM
- CC50 (OVCAR-8; [9]): > 100 µM
- TGI (OVCAR-8; five-dose): 5.19 µM
- TGI (OVCAR-3 [3]): 3.23 µM
- GI50 (EKVX; [7]): 10.5 µM
- GI50 (EKVX; [8]): 11 µM
- CC50 (EKVX; [9]): 48.7 µM
- TGI (EKVX; five-dose): 23.2 µM
- GI50 (PC-3; [7]): 2.57 µM
- GI50 (PC-3; [8]): 2.85 µM
- CC50 (PC-3; [9]): > 100 µM
- TGI (PC-3; five-dose): 30.2 µM
- TGI (OVCAR-3 [4]): 4.2 µM
- TGI (MKN1): 3.4 µM
- GI50 (MKN1; Homo sapiens, MKN-1): 1.8 µM
- CC50 (MKN1; Homo sapiens, MKN-1, read-out: LC50 (the source's name)): 6.6 µM
- GI50 (HOP-92; [7]): 1.45 µM
- GI50 (HOP-92; [8]): 1.43 µM
- CC50 (HOP-92; [9]): 7.84 µM
- TGI (HOP-92; five-dose): 3.34 µM
- GI50 (SW-620; [7]): 2.51 µM
- GI50 (SW-620; [8]): 2.87 µM
- CC50 (SW-620; [9]): 58.7 µM
- TGI (SW-620; five-dose): 10.4 µM
- GI50 (NCI/ADR-RES; [7]): 3.09 µM
- GI50 (NCI/ADR-RES; [8]): 3.12 µM
- CC50 (NCI/ADR-RES; [9]): > 100 µM
- TGI (NCI/ADR-RES; five-dose): 18.8 µM
- TGI (LOX-IMVI): 4.2 µM
- GI50 (LOX-IMVI; Homo sapiens): 1.9 µM
- CC50 (LOX-IMVI; [6]): 9.3 µM
- GI50 (SK-OV-3 [5]; [7]): 13.2 µM
- GI50 (SK-OV-3 [5]; [8]): 17.8 µM
- CC50 (SK-OV-3 [5]; [9]): 58 µM
- TGI (SK-OV-3 [5]; five-dose): 32.1 µM
- GI50 (NCI-H522; [7]): 1.66 µM
- GI50 (NCI-H522; [8]): 1.6 µM
- CC50 (NCI-H522; [9]): 8.18 µM
- TGI (NCI-H522; five-dose): 3.62 µM
- TGI (SF-295): 3.5 µM
- GI50 (SF-295; Homo sapiens): 1.9 µM
- CC50 (SF-295; [6]): 6.5 µM
- GI50 (HOP-62; [7]): 3.89 µM
- GI50 (HOP-62; [8]): 4.95 µM
- CC50 (HOP-62; [9]): 43.3 µM
- TGI (HOP-62; five-dose): 17.3 µM
- GI50 (KM12; [7]): 10.7 µM
- GI50 (KM12; [8]): 12.9 µM
- CC50 (KM12; [9]): 52.1 µM
- TGI (KM12; five-dose): 25.9 µM
- GI50 (HT29; Homo sapiens, HT-29, Fig 7, read-out: mean log10 of the GI50 values (converted)): 19.5 µM
- GI50 (HT29; Homo sapiens, HT-29, five-dose, read-out: GI50): 19.2 µM
- CC50 (HT29; Homo sapiens, HT-29, five-dose, read-out: LC50 (the source's name)): 98.2 µM
- TGI (HT29; five-dose): 43.4 µM
- GI50 (A498; [7]): 85.1 µM
- GI50 (A498; [8]): 72.8 µM
- CC50 (A498; [9]): > 100 µM
- TGI (A498; five-dose): >100 µM
